ChEMBL document CHEMBL2311245, “Hypoxia-selective O6-alkylguanine-DNA alkyltransferase inhibitors: design, synthesis, and evaluation of 6-(benzyloxy)-2-(aryldiazenyl)-9H-purines as prodrugs of O6-benzylguanine” (J Med Chem, 2013)
Activity calls are given as the source filed them. The rule behind the calls is not given here.

Columns and labels:
Assay type in all cases: cell-based
DU-145 = experiment: Prodrug activation in human DU145 cells assessed as O6-benzylguanine formation under normoxic condition at 50 uM over 3 hrs by HPLC analysis; details: du-145, 3 h
[1] = molecular target: T1, Methylated-DNA--protein-cysteine methyltransferase (Homo sapiens) (UniProt P16455); experiment: Inhibition of AGT in human DU145 cells assessed as potentiation of laromustine-induced cytotoxicity under hypoxic condition up to 10 uM treated 4 hrs prior to laromustine treatment measured after 24 hrs by clonogenic assay; details: DU-145
T1 sequence (whole entry): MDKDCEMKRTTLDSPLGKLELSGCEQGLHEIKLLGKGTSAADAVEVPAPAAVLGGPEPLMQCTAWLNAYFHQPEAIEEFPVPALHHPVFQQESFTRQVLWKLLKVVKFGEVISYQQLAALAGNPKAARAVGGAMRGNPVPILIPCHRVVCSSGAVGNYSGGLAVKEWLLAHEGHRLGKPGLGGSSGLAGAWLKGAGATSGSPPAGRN

[2] = molecular target: T1, Methylated-DNA--protein-cysteine methyltransferase (Homo sapiens); experiment: Inhibition of AGT in human DU145 cells assessed as potentiation of laromustine-induced cytotoxicity under hypoxic condition at >10 uM treated 4 hrs prior to laromustine treatment measured after 24 hrs by clonogenic assay; details: DU-145
EMT6 = experiment: Prodrug activation in mouse EMT6 cells assessed as O6-benzylguanine formation under normoxic condition at 50 uM after 3 hrs by HPLC analysis; details: emt6, 3 h
[3] = molecular target: T1, Methylated-DNA--protein-cysteine methyltransferase (Homo sapiens); experiment: Inhibition of AGT in human DU145 cells assessed as potentiation of laromustine-induced cytotoxicity under normoxic condition up to 10 uM treated 4 hrs prior to laromustine treatment measured after 24 hrs by clonogenic assay; details: DU-145
[4] = molecular target: T1, Methylated-DNA--protein-cysteine methyltransferase (Homo sapiens); experiment: Inhibition of AGT in human DU145 cells assessed as potentiation of laromustine-induced cytotoxicity under normoxic condition up to 50 uM treated 4 hrs prior to laromustine treatment measured after 24 hrs by clonogenic assay; details: DU-145
[5] = molecular target: T1, Methylated-DNA--protein-cysteine methyltransferase (Homo sapiens); experiment: Inhibition of AGT in human DU145 cells assessed as potentiation of laromustine-induced cytotoxicity under hypoxic condition up to 50 uM treated 4 hrs prior to laromustine treatment measured after 24 hrs by clonogenic assay; details: DU-145

Drug metabolism (DU-145) | Drug metabolism (EMT6) | Structure (SMILES) | inhibition [1] | inhibition [2] | inhibition [3] | inhibition [4] | inhibition [5]
Not Active | Not Active | CN(C)c1ccc(/N=N/c2nc(OCc3ccccc3)c3nc[nH]c3n2)cc1 | Active | Active | inactive |  | 
 |  | CN1CCN(c2ccc(/N=N/c3nc(OCc4ccccc4)c4nc[nH]c4n3)cc2)CC1 |  |  |  | inactive | Active
